# Assay results reported in PMC9579956 (RSC Medicinal Chemistry, 2022).
# Molecular target: Mycobacterium thermoresistible (Mtr) LpqY (Mycolicibacterium thermoresistibile, UniProt G7CES0)
# Format: binding
# Settings: single dose MST screen against LpqY
# Mycobacterium thermoresistible (Mtr) LpqY, sequence (G7CES0 29-471): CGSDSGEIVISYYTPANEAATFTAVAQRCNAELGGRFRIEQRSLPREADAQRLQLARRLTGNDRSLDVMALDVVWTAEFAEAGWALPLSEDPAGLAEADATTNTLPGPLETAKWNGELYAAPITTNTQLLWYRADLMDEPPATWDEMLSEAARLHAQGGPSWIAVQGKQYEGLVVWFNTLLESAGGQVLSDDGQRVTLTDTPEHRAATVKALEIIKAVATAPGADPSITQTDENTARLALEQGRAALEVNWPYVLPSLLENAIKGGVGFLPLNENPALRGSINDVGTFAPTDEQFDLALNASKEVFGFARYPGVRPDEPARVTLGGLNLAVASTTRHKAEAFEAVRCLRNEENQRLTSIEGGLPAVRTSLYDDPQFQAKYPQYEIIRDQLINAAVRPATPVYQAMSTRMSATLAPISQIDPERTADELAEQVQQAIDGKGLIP
row,SMILES,Pathogen Box screen signal/noise ratio
1,Cc1cc(NC(=O)c2ccc(Oc3ccc(Cl)cc3O)o2)no1 [MMV688955],0.4
2,c1ccc(-c2nc(NC3CCCCC3)cc(C3CC3)n2)nc1 [MMV021013],0.0694
3,Cc1nc(-c2ccccn2)nc(N(C)CCc2ccccc2)c1Cl [MMV658988],2.9
4,CCN(CC)CCCCCCNc1cc(OC)cc2c(C)ccnc12 [MMV000063],2.2
5,O=C(NC1CC1)c1ccc(N2CCOc3ccc(Cl)cc32)s1 [MMV020537],1.9
6,Cc1ccc(-c2cc(C(=O)Nc3cccnc3)c3cc(Br)ccc3n2)cc1 [MMV016838],0.75
7,CC1=Nc2ccc(Cl)cc2C(O)(c2ccc(C)cc2)N1CCN1CCCCC1 (centres unmarked) [MMV688279],0.8
8,O=C(COc1cccc(F)c1)Nc1nc(-c2ccccn2)cs1 [MMV676409],0.449
9,Cc1ccc(S(=O)(=O)N2CCN(C(=O)c3cc(-c4ccccc4)[nH]n3)CC2)cc1 [MMV019742],0.286
10,CNC(=O)CNc1nc(-c2ccccn2)nc2scc(-c3ccccc3)c12 [MMV1029203],0.463
11,O=C(Nc1nnc(-c2ccc(Cl)cc2)o1)c1cccc(C(F)(F)F)c1 [MMV102872],0.75
12,CS(=O)(=O)N1CCC(Cn2nc(Cc3cccc4ccccc34)c3c(N)ncnc32)CC1 [MMV676050],0.8
13,CCCCN(CCCC)c1c(C#N)cc(S(=O)(=O)Nc2ccccc2)cc1C#N [MMV688467],0.7
14,Nc1ncc(Br)cc1-c1nc2cc(Cl)cnc2[nH]1 [MMV676358],4.8
15,CC(C)(C)n1nc(-c2ccccc2)c2c(N)ncnc21 [MMV688548],1.0
16,CC(=O)Nc1ccc(-c2noc(CC3CCCN(Cc4cccc(F)c4C)C3)n2)cc1 (centres unmarked) [MMV689061],0.9
17,CO[C@@H](C(=O)N1Cc2[nH]nc(NC(=O)c3ccc(N4CCN(C)CC4)cc3)c2C1)c1ccccc1 [MMV676600],0.6
18,COc1cccc(-c2cc3c(Nc4cccnc4)nccc3[nH]2)c1 [MMV392832],2.1
19,Cc1cc(C)n2nc(C(=O)Nc3cc(C(F)(F)F)ccc3N3CCOCC3)nc2n1 [MMV019087],1.2
20,Cc1cc(Cl)ccc1NC(=O)CCc1ccc(S(=O)(=O)NCC(C)C)cc1 [MMV161996],1.2

row,SMILES,Pathogen Box screen signal/noise ratio
1,Nc1ccc(C(=O)Nc2ccc(-c3nc4ccccc4o3)cc2)cc1 [MMV007920],0.9
2,CC(C)C(Oc1cccc2ccccc12)C(=O)O (centres unmarked) [MMV676191],0.9
3,COc1cc(-c2cc(-c3ccc(S(C)(=O)=O)cc3)cnc2N)ccc1O [MMV010576],3.1
4,CN1CCC(c2cc(-c3ccncc3)c(-c3ccc(F)cc3)[nH]2)CC1 [MMV688703],1.2
5,O=C(c1ccc(F)cc1)N(CCNc1ccccc1)c1ccccc1 [MMV676204],0.644
6,c1ccc2c(c1)CN(CC1CC1)CC1(CCN(Cc3c[nH]c4cnccc34)CC1)O2 [MMV023183],2.8
7,COC(=O)c1c(NC(=O)c2c(F)c(F)c(F)c(F)c2F)sc2c1CCCCC2 [MMV461553],2.6
8,CCCNC(=O)N1CCC2(CC1)CC(=O)c1cc(C)ccc1O2 [MMV085230],1.0
9,COc1ccc(-c2cncc3ccc(C(=O)NCCCn4ccnc4)nc23)cc1 [MMV020670],2.7
10,O=C(NCCN1CCCC1)c1cc(NCCCCN2CCC(F)(F)CC2)nc2ccc(Cl)cc12 [MMV667494],0.344
11,COc1ccc(C2=NCCN2)cc1-c1cn(-c2cccc(C3=NCCN3)c2)nn1 [MMV688547],0.9
12,CCOC(=O)c1c(NC(=O)c2c(F)c(F)c(F)c(F)c2F)sc(C(N)=O)c1C [MMV153413],1.3
13,CO[C@@H]1CN(c2ccc(C#CC3(O)CN4CCC3CC4)c(Cc3ccccc3)n2)C[C@H]1O (some centres unmarked) [MMV688415],1.0
14,CCCn1c(CNc2ccccc2O)nc2ccccc21 [MMV676445],0.8
15,Cc1ccc(NC(=O)CC2COc3ccccc3O2)cc1Cl (centres unmarked) [MMV676431],2.3
16,FC(F)(F)c1cnc(Sc2nnc(-c3ccncc3)o2)c(Cl)c1 [MMV011765],1.6
17,CC(Oc1cccc(Cl)c1)C(=O)Nc1ccc2oc(-c3ccncc3)nc2c1 (centres unmarked) [MMV688472],0.7
18,N#Cc1ccc(-c2cnc(N)c(-c3ccc(C(N)=O)cc3)n2)cc1 [MMV085499],2.4
19,O=C(NC1CC1)c1ccc(N2CCC(Cc3ccccc3)CC2)nc1 [MMV024397],0.8
20,OCCc1ccc(Nc2nccc(-c3nnc4ccccn34)n2)cc1 [MMV028694],1.5

row,SMILES,Pathogen Box screen signal/noise ratio
1,O=C(Nc1ccccc1-c1nc2c(C(=O)O)cccc2o1)c1ccccc1 [MMV676162],0.9
2,CC(=O)NCC1CN(c2ccc(-c3ccc(CNCc4cn[nH]n4)cc3)c(F)c2)C(=O)O1 (centres unmarked) [MMV688327],0.344
3,Nc1nccc2ccc(Oc3ccncc3)cc12 [MMV026313],1.4
4,CCOc1ccc(-c2nc(NC(=O)CS(=O)(=O)c3ccccc3)sc2C)cc1 [MMV007638],0.254
5,N#Cc1ccc(-c2ccc(OCC(N)=O)cc2)cc1 [MMV053220],0.639
6,N#Cc1nc(-c2ccccc2F)oc1NCCc1ccccc1 [MMV676384],1.0
7,O=C(NCc1ccoc1)N1CCN(Cc2ccc3c(c2)OCO3)CC1 [MMV688553],0.8
8,CC(C)N=c1cc2n(-c3ccc(Cl)cc3)c3ccccc3nc-2cc1Nc1ccc(Cl)cc1 [MMV687800],0.6
9,CCCCc1ccc(NC(=O)Nc2ccc(O[C@H]3CCCC[C@@H]3N(C)c3ccccc3)c(F)c2)cc1 [MMV676063],0.0
10,CC(C)(C)C1CCC(CC2=C(O)C(=O)c3ccccc3C2=O)CC1 (centres unmarked) [MMV689480],2.3
11,CC(C)C(NC(=O)Cc1cccc2ccccc12)C(=O)Nc1cccc(C#N)c1 (centres unmarked) [MMV020591],0.25
12,CCC(NC(=O)c1ccccc1NC(=O)c1ccc(C)cc1)C(=O)OC (centres unmarked) [MMV019551],0.267
13,CC1(C)Cc2c(c(N3CCOCC3)nc3snc(Br)c23)CO1 [MMV687794],0.0714
14,CNc1cc(C)nc(C2CN(C(=O)c3n[nH]c4ccccc34)CCO2)c1 (centres unmarked) [MMV689709],2.1
15,NC(CC(=O)c1ccc(Cl)cc1Cl)C(Cl)(Cl)Cl (centres unmarked) [MMV676468],0.8
16,N=C(N)Nc1ccc(-c2ccc(-c3ccc(N=C(N)N)c(Cl)c3)o2)cc1Cl [MMV688271],2.0
17,CCOc1ccccc1C(=O)Nc1cccc(-c2nc3ncccn3c2C)c1 [MMV019790],1.6
18,c1csc(-c2cnc3sc(NCC4CCOCC4)nn23)c1 [MMV010764],0.667
19,CC(C)(CN)c1nc(-c2ccc(Cl)c(O)c2)c(-c2ccnc(N)n2)[nH]1 [MMV030734],3.5
